{"source": "patent US9114149B2", "about": "“[CU(thp)4]n[X]-n compounds for the treatment of a broad range of human solid tumors, including refractory tumors” (Universita Degli Studi Di Padova, priority 2011, dated 2015)", "key": {"[1]": {"system": "AGS", "test": "MTT cytotoxicity, AGS (stomach)", "format": "cell-based, human", "settings": "MTT test, 72 hrs", "excerpt": "(§1) The in vitro antitumor activity of CP had been deeply evaluated in several human cancer cell lines by in vitro cytotoxicity assays. CP cytotoxicity has been detected in a large panel of human cell lines derived from a wide variety of solid tumors, including refractory tumors. In Table 1, the cytotoxicity parameters IC50 (that is the median growth inhibitory concentrations calculated from dose-survival curves via MTT test) are tabulated.\n(§2) Cell lines representative of lung (H157, U1810, U1285, Calu-1), pancreas (MIA PaCa-2, BxPC-3, AsPC-1, Capan-1), liver (Huh-7, Hep 3B, SK-Hep-1), oesophagus (OE33, OE21), oesophagus/gastric cardia (OE19), stomach (BGC-823, AGS), colon (HCT-116, T84, COLO 205), breast (MDA-MB-231, SK-BR-3), cervix (CaSki, C-33 A) ovarian (A2780, SK-OV-3, IGROV1), prostate (LnCaP, PC-3) cancers along with melanoma (MEWO, G361, C-32), neuroblastoma (SH-SY5Y, SK-N-AS, IMR-32) and osteosarcoma (U-2 OS, MG-63) have been treated with increasing concentration of CP for 72 hrs."}, "[2]": {"system": "COLO 205", "test": "MTT cytotoxicity, COLO 205 (colon)", "format": "cell-based, human", "settings": "MTT test, 72 hrs", "excerpt": "as §1, §2"}, "[3]": {"system": "CaSki", "test": "MTT cytotoxicity, CaSki (cervix)", "format": "cell-based, human", "settings": "MTT test, 72 hrs", "excerpt": "as §1, §2"}, "[4]": {"system": "PC-3", "test": "MTT cytotoxicity, PC-3 (prostate)", "format": "cell-based, human", "settings": "MTT test, 72 hrs", "excerpt": "as §1, §2"}, "[5]": {"system": "human ovarian adenocarcinoma cells resistant (A2780cisR) to CDDP", "test": "Cross resistance MTT test, A2780cisR (CDDP resistant)", "format": "cell-based", "settings": "for IC50: A2780cisR (CDDP resistant), MTT test, 72 h, probit analysis; for R.F. (Resistant factor): IC50 resistant/parent line: A2780cisR / A2780"}, "[6]": {"system": "human lung (MRC-5) fibroblasts", "test": "Cytotoxicity towards human non-tumor cells, MRC-5", "format": "cell-based", "settings": "MRC-5 human lung fibroblasts (non-tumor); MTT test, 72 hrs"}, "[7]": {"system": "human foreskin (HFFF2) fibroblasts", "test": "Cytotoxicity towards human non-tumor cells, HFFF2", "format": "cell-based", "settings": "MTT test, 72 hrs"}, "[8]": {"system": "Lewis lung carcinoma (LLC)", "test": "Early-stage treatment of LLC-bearing mice", "format": "in vivo, C57BL mice", "settings": "for Average tumor weight (mean ± S.D.) / Inhibition of tumor growth: early-stage; for Average tumor weight (mean ± S.D.): day 15; for Inhibition of tumor growth: day 15, referred to control", "protocol": "Body weight was measured every two days and was taken as a parameter of systemic toxicity. The X axis indicates the days after transplantation whereas the Y axis indicates the percentage of body weight changes. […] The error bars indicate the SD.\nThe antitumor efficacy of CP was evaluated in a model of solid tumor, the syngeneic murine Lewis Lung Carcinoma (also indicated as LLC). […] Body weight of tumor-bearing mice has been measured every two days simultaneously with antitumor analyses and was taken as a parameter of systemic toxicity.\nLLC was implanted intramuscularly (i.m., 2×10^6 cells inoculum) into the right hind leg of 8-week old inbred C57BL mice (24±3 g body weight) and, after 24 h from tumor implantation, mice were randomly divided into five groups (8 animals per group, 10 controls). CP was dosed at 25, 35 and 50 mk/kg i.p. on days 3, 5, 7, 9, 11 and 13 after tumor implantation. […] At day 15, animals were sacrificed, and the inhibition of tumor growth was evaluated."}, "[9]": {"system": "Lewis lung carcinoma (LLC)", "test": "Advanced-stage treatment (1) of LLC-bearing mice", "format": "in vivo, C57BL mice", "settings": "for Average tumor weight (mean ± S.D.) / Inhibition of tumor growth: advanced-stage (1); for Average tumor weight (mean ± S.D.): day 15; for Inhibition of tumor growth: day 15, referred to control; for adverse effects / body weight changes during therapy: advanced-stage treatments (1) and (2), FIGS. 2 and 3", "protocol": "Body weight was measured at day 1 and every two days from day 7 and was taken as a parameter of systemic toxicity. The X axis indicates the days after transplantation whereas the Y axis indicates the percentage of body weight changes. […] The error bars indicate the SD.\nThe in vivo antitumor activity of CP in LLC tumor model has been further investigated by means of other protocols, such as advanced-stage treatment (1), and advanced-stage treatment (2). For upstaged or advanced stage disease, LLC tumors were allowed to establish and grow to visible (advanced-stage treatment 1) and palpable (advanced-stage treatment 2) size before the start of chemotherapy. The results shown in Table 8 and 9, attested that CP was efficacious even at the lowest dose schedules."}, "[10]": {"system": "human colon adenocarcinoma cells sensitive (HCT-116)", "test": "Cross resistance MTT test, HCT-116 (OXP sensitive)", "format": "cell-based", "settings": "72 h, probit analysis"}, "[11]": {"system": "BALB/c mice", "test": "Acute toxicity tests in healthy BALB/c mice", "format": "in vivo", "settings": "for LD50: BALB/c mice, observed 24 hrs", "protocol": "The acute toxicity was assessed by treating BALB/c or C57BL mice with a single intraperitoneal (i.p.) or endovenous (e.v.) administration of different amounts, i.e. 3.125, 6.25, 12.5, 25, 50, 100 and 200 mg/kg of tested compounds.\nTo preliminarily establish the toxicity profile of CP, acute and repeat-dose toxicity studies were performed in BALB/c mice and in C57BL mice."}, "[12]": {"system": "L1210 murine leukemia", "test": "Antitumor efficacy in murine leukemia", "format": "in vivo", "settings": "established animal leukaemia", "protocol": "(§3) The detection of drug uptake by tumor cells in animal models clearly attest that CP efficiently and selectively accumulates in the solid tumor mass.\nThe antitumor efficacy of CP was evaluated in L1210 murine leukemia and in mouse Lewis Lung carcinoma (LLC)."}, "[13]": {"system": "human leukemic cell lines", "test": "Cytotoxicity against human leukemic cell lines", "format": "cell-based", "settings": "several human leukemic cell lines", "excerpt": "as §3"}, "[14]": {"system": "human cancer cell lines derived from solid tumors", "test": "MTT cytotoxicity, whole panel of human solid tumor cell lines", "format": "cell-based", "settings": "Table 1 panel, maximum", "excerpt": "as §1, §2\nIn colon, liver, brain, ovary and prostate cell line panels IC50 values in the submicromolar range have been obtained."}, "[15]": {"test": "Solubility in water", "format": "physicochemical"}, "[16]": {"system": "human colon adenocarcinoma cells resistant (HCT-116 OXP) to OXP"}, "[17]": {"system": "CDDP resistant and OXP resistant human cancer cells"}, "[18]": {"settings": "1.5 mg/kg ip days 3, 5, 7, 9, 11, 13"}, "[19]": {"settings": "1.5 mg/kg i.p. daily from day 7"}, "[20]": {"settings": "35 mg/kg ip days 3, 5, 7, 9, 11, 13"}, "[21]": {"settings": "50 mg/kg ip days 3, 5, 7, 9, 11, 13"}}, "note": "“And” between values parts separate entries of the source, which are not always exact repeats. Identical values can stand only once. Marks after values point to notes of the source that are not given here."}
{"smiles": "N.N.[Cl][Pt][Cl]", "note": "[CDDP, cis-diamminodichloro platinum(II)]", "values": [{"measurement": "IC50", "setting": "[1]", "result": "6.33 ± 1.79", "unit": "µM"}, {"measurement": "IC50", "setting": "[2]", "result": "33.1 ± 2.68", "unit": "µM"}, {"measurement": "IC50", "setting": "[3]", "result": "31.1 ± 2.97", "unit": "µM"}, {"measurement": "IC50", "setting": "[4]", "result": "1.57 ± 1.13", "unit": "µM"}, {"measurement": "IC50", "setting": "[5]", "result": "13.1 ± 2.3", "unit": "µM"}, {"measurement": "R.F. (Resistant factor)", "setting": "[5]", "result": 5.3}, {"measurement": "IC50", "setting": "[6]", "result": "19.2 ± 1.35", "unit": "µM"}, {"measurement": "IC50", "setting": "[7]", "result": "20.9 ± 2.33", "unit": "µM"}, {"measurement": "body weight loss", "setting": "[8]; early-stage LLC mice, 1.5 mg/kg, after the sixth administration (FIG. 1)", "result": "about 30%"}, {"measurement": "Average tumor weight (mean ± S.D.)", "setting": "[8]; [18]", "result": "0.168 ± 0.10", "unit": "g"}, {"measurement": "Inhibition of tumor growth", "setting": "[8]; [18]", "result": 73.66, "unit": "%"}, {"measurement": "Average tumor weight (mean ± S.D.)", "setting": "[9]; [19]", "result": "0.061 ± 0.03", "unit": "g"}, {"measurement": "Inhibition of tumor growth", "setting": "[9]; [19]", "result": 87.84, "unit": "%"}, {"measurement": "adverse effects / body weight changes during therapy", "setting": "[9]", "result": "substantial weight loss"}]}
{"smiles": "F[P-](F)(F)(F)(F)F.OC[P+](CO)(CO)[Cu-3]([P+](CO)(CO)CO)([P+](CO)(CO)CO)[P+](CO)(CO)CO", "note": "[CP, [Cu(thp)4][PF6]]", "values": [{"measurement": "IC50", "setting": "[1]", "result": "1.14 ± 0.78", "unit": "µM"}, {"measurement": "IC50", "setting": "[2]", "result": "0.65 ± 0.03", "unit": "µM"}, {"measurement": "IC50", "setting": "[3]", "result": "3.16 ± 1.45", "unit": "µM"}, {"measurement": "IC50", "setting": "[4]", "result": "0.98 ± 0.97", "unit": "µM"}, {"measurement": "IC50", "setting": "[5]", "result": "2.1 ± 1.2", "unit": "µM"}, {"measurement": "R.F. (Resistant factor)", "setting": "[5]", "result": 1.2}, {"measurement": "IC50", "setting": "[10]", "result": "1.4 ± 0.5", "unit": "µM"}, {"measurement": "IC50", "setting": "[6]", "result": "33 ± 1.76", "unit": "µM"}, {"measurement": "IC50", "setting": "[7]", "result": "31.1 ± 3.48", "unit": "µM"}, {"measurement": "LD50 relative to that recorded with CDDP", "setting": "[11]; BALB/c and C57BL mice (Table 5)", "result": "about one order of magnitude higher"}, {"measurement": "LD50", "setting": "[11]; single e.v. administration", "result": "135^b mg/kg"}, {"measurement": "LD50", "setting": "[11]; single i.p. administration", "result": "150^a mg/kg"}, {"measurement": "body weight loss compared with the non-treated group", "setting": "[8]; early-stage LLC mice, even at the highest doses (FIG. 1)", "result": "no significant body weight loss"}, {"measurement": "Average tumor weight (mean ± S.D.)", "setting": "[8]; 25 mg/kg ip days 3, 5, 7, 9, 11, 13", "result": "0.473 ± 0.12", "unit": "g"}, {"measurement": "Inhibition of tumor growth", "setting": "[8]; 25 mg/kg ip days 3, 5, 7, 9, 11, 13, 25 mg/kg", "result": "26% and 25.86%"}, {"measurement": "Average tumor weight (mean ± S.D.)", "setting": "[8]; [20]", "result": "0.273 ± 0.04", "unit": "g"}, {"measurement": "Inhibition of tumor growth", "setting": "[8]; [20]", "result": 57.21, "unit": "%"}, {"measurement": "Average tumor weight (mean ± S.D.)", "setting": "[8]; [21]", "result": "0.113 ± 0.04", "unit": "g"}, {"measurement": "Inhibition of tumor growth", "setting": "[8]; [21]", "result": 82.28, "unit": "%"}, {"measurement": "Average tumor weight (mean ± S.D.)", "setting": "[9]; 30 mg/kg i.p. daily from day 7", "result": "0.088 ± 0.03", "unit": "g"}, {"measurement": "Inhibition of tumor growth", "setting": "[9]; 30 mg/kg i.p. daily from day 7", "result": 82.37, "unit": "%"}, {"measurement": "Average tumor weight (mean ± S.D.)", "setting": "[9]; 50 mg/kg i.p. daily from day 7", "result": "0.071 ± 0.02", "unit": "g"}, {"measurement": "Inhibition of tumor growth", "setting": "[9]; 50 mg/kg i.p. daily from day 7", "result": 85.85, "unit": "%"}, {"measurement": "adverse effects / body weight changes during therapy", "setting": "[9]", "result": "did not induce any adverse effects"}, {"measurement": "antitumor efficacy against animal leukaemia", "setting": "[12]", "result": "failed to show significant antitumor efficacy"}, {"measurement": "cytotoxicity against human leukemic cell lines", "setting": "[13]", "result": "high cytotoxicity"}, {"measurement": "fold more cytotoxic than CDDP", "setting": "[14]", "result": "up to 50 fold"}, {"measurement": "fold more cytotoxic than OXP", "setting": "[14]", "result": "≤ 30", "unit": "fold"}, {"measurement": "solubility in water", "setting": "[15]", "result": "excellent solubility in water"}, {"measurement": "IC50", "setting": "[16]; HCT-116 OXP (OXP resistant), MTT test, 72 h, probit analysis", "result": "1.9 ± 0.7", "unit": "µM"}, {"measurement": "R.F. (Resistant factor)", "setting": "[16]; IC50 resistant/parent line: HCT-116 OXP / HCT-116", "result": 1.4}, {"measurement": "IC50 fold lower than the reference metallodrugs", "setting": "[17]; Table 2 cell lines, maximum", "result": "up to 15 fold"}, {"measurement": "antitumor activity levels on sensitive versus resistant cell lines", "setting": "[17]; sensitive and resistant cell line pairs", "result": "very similar"}]}
